Earlier results, collected in patent US20060105068A1, “Dietary supplement formulations containing Hoodia gordonii” (priority 2003, published 2006).

Legend:
[1] = United States; therapeutic range; aspirin and associated compounds
[2] = after fifteen weeks; 1200 calorie/day diet
[3] = rats

Compound: CC(=O)OC1CC[C@@]2(C)C(=CC(=O)[C@@H]3[C@@H]2CC[C@]2(C)C(=O)CC[C@@H]32)C1 (stereo partly drawn) [Formula 7-Keto, 3-acetyl-7-oxo-dehydroepiandrosterone]
- body weight, body mass index (BMI), and waist and hip circumference versus placebo (8-week treatment period): statistically significant reductions
- tolerability / adverse events (8-week treatment period): well tolerated and no serious adverse events were reported
- effect on testosterone levels (human, in vivo): does not increase testosterone levels

Compound: CC(=O)Oc1ccccc1C(=O)O [aspirin]
- people who die each year [1]: 7,600

Compound: CCN[C@@H](C)Cc1cccc(C(F)(F)F)c1 [dexfenfluramine]
- weight lost [2]: 15.2+/−9.5 lbs

Compound: O=C(O[C@@H]1Cc2c(O)cc(O)cc2O[C@@H]1c1cc(O)c(O)c(O)c1)c1cc(O)c(O)c(O)c1 [epigallocatechin gallate]
- loss of body weight [3]: up to 21%
- decrease in appetite ([3]; after seven days of injections): 60%

Compound: NC(Cc1cc(I)c(Oc2cc(I)c(O)c(I)c2)c(I)c1)C(=O)O (stereo not drawn) [throxine]
- reduction in CYP450 (cytochrome P450; when throxine is increased): 60-80%

Compound: Naringinine [Naringinines]
- effect on cytochrome P450 enzymes (cytochrome P450): inhibit
